Assays:
p16 = assay: RT-PCR assay for gene expression (p16) in RKO and HCT-116 cells; assay type: cell-based; conditions: for RNA expression levels of p16: FIG. 1, varying concentrations, forty eight hour incubation
Experimental: RKO and HCT-116 cells were treated with Cpd. AAA, Cpd. BBB, and Cpd. CCC at varying concentrations. After a forty eight hour incubation cells were harvested for RNA isolation using the Qiagen RNeasy Mini kit. RNA was quantified using a spectrophotometer and 1 μg of RNA was used for cDNA synthesis using the Bio-Rad iScript cDNA Synthesis Kit. RTPCR was performed using SYBER GreenER qPCR SuperMix for iCycler according to the manufacturer's protocol. Primer sequences used are as follows [NT] (SEQ ID NO: 2) and [NT] (SEQ ID NO: 3), MLH-1 [NT] (SEQ ID NO: 4) and [NT] (SEQ ID NO:5), [NT] (SEQ ID NO: 6) and [NT] (SEQ ID NO: 7), GAPDH [NT] (SEQ ID NO:8) and [NT] (SEQ ID NO:9), and […] (SEQ ID NO: 10) and [NT] (SEQ ID NO:11). Samples were analyzed on the iQ5 Multicolor Real-Time PCR Detection System from Bio-Rad. Data analysis was performed using the iQ5 Optical System Software version 2.0, Threshold Cycle (CT) and CT mean values were determined from this software. For each sample there are at least four reactions, two for p16 and two for GAPDH the housekeeping control. The mean CT value from the GAPDH reactions was subtracted from each of the corresponding p16 samples CT giving a value termed Delta CT. Then the Delta CT for the untreated p16 sample is subtracted from all treated Delta CT values giving another value termed Delta Delta CT. […] The duplicate samples are averaged together to get an average Relative Expression for each treatment and the Standard Error is calculated. Relative expression values for p15 and MLH-1 were calculated using the same method. […] AAA, Cpd. BBB, and Cpd. […] Cpd. […] Because the higher levels of p16 seemed to have less effect in causing re-expression of p16 there may be some issues with drug solubility or toxicity at the higher concentrations tested.

HCT-116 = assay: Cell-based growth assay (Cell-Titer-Glo), HCT-116; conditions: Homo sapiens; HCT-116, 96 hours; read-out: IC50 Values CTG
Experimental: (§1) Cell culture-based assays can be used to evaluate the ability of compounds of the invention to inhibit one or more cellular activities, such as cancer cell growth and/or survival. Numerous cancer cell lines can be obtained from the American Type Culture Collection (ATCC) and other sources. Briefly, cells are seeded into 96-well, tissue-culture treated, opaque white plates (Thermo Electron, Vantaa, Finland), at between 5000 and 10000 cells per well, depending on the speed of cell proliferation, in 100 μl of appropriate growth medium (determined by the ATCC). Cells are then exposed to the appropriate concentration of drug or an equal amount of DMSO (drug diluent) and allowed to grow in its presence for 96 hours. Following this, 100 μl of Cell-Titer-Glo (CTG) reagent (Promega, Inc., Madison, Wis.) is added to each well. Plates are then shaken for 2 minutes at room temperature to allow for cell lysis and incubated for 10 minutes at room temperature to stabilize the luminescent signal. Similar to the Kinase-Glo assay reagent from Promega, this reagent contains both luciferase enzyme and its substrate luciferin. Luciferase, activated by ATP in the cell lysate, catalyzes the conversion of luciferin to oxyluciferin, a reaction which produces light. […]

RKO = assay: Cell-based growth assay (Cell-Titer-Glo), RKO; conditions: Homo sapiens, 96 hours, read-out: IC50 Values CTG
Experimental: Cell culture-based assays can be used to evaluate the ability of compounds of the invention to inhibit one or more cellular activities, such as cancer cell growth and/or survival. Numerous cancer cell lines can be obtained from the American Type Culture Collection (ATCC) and other sources. Briefly, cells are seeded into 96-well, tissue-culture treated, opaque white plates (Thermo Electron, Vantaa, Finland), at between 5000 and 10000 cells per well, depending on the speed of cell proliferation, in 100 μl of appropriate growth medium (determined by the ATCC). Cells are then exposed to the appropriate concentration of drug or an equal amount of DMSO (drug diluent) and allowed to grow in its presence for 96 hours. Following this, 100 μl of Cell-Titer-Glo (CTG) reagent (Promega, Inc., Madison, Wis.) is added to each well. Plates are then shaken for 2 minutes at room temperature to allow for cell lysis and incubated for 10 minutes at room temperature to stabilize the luminescent signal. Similar to the Kinase-Glo assay reagent from Promega, this reagent contains both luciferase enzyme and its substrate luciferin. Luciferase, activated by ATP in the cell lysate, catalyzes the conversion of luciferin to oxyluciferin, a reaction which produces light. The amount of light produced is proportionate to the amount of ATP in the cell lysate, which is itself proportional to cell number and gives an index of cellular proliferation.

Panc-1 = assay: Cell-based growth assay (Cell-Titer-Glo), Panc-1; conditions: Homo sapiens; Panc-1, 96 hours; read-out: IC50 Values CTG
Experimental: as §1

| IC50 (HCT-116) [µM] | IC50 (Panc-1) [µM] | SMILES | RNA expression levels of p16 (p16) | re-expression of p16 over no treatment (p16; concentration of 0.11 M (so in the source)) | IC50 (RKO) [µM] |
| --- | --- | --- | --- | --- | --- |
| 6.15 | 1.8 | Cl.O=C(Nc1ccc(Sc2ccncc2)cc1)c1ccc(Nc2ccnc3ccccc23)cc1 [Cpd. AAA, N-[4-(pyridin-4-ylthio)phenyl]-4-(quinolin-4-ylamino)benzamide hydrochloride] | increase the RNA expression levels of p16 | greatest re-expression of p16 | 1.22 |
| 0.67 | 1 | Cl.Nc1cc(Sc2ccc(NC(=O)c3ccc(Nc4ccnc5ccccc45)cc3)cc2)ccn1 [Cpd. BBB, N-[4-(2-aminopyridin-4-ylthio)phenyl]-4-(quinolin-4-ylamino)benzamide hydrochloride] | increase the RNA expression levels of p16 | – | 0.74 |
| – | – | Cl.O=C(Nc1ccc(Sc2ccnc(O)c2)cc1)c1ccc(Nc2ccnc3ccccc23)cc1 [Cpd. CCC, N-[4-(2-hydroxypyridin-4-ylthio)phenyl]-4-(quinolin-4-ylamino)benzamide hydrochloride] | increase the RNA expression levels of p16 | – | 6.6 |

From US7939546B2, “Quinoline derivatives for modulating DNA methylation” (SuperGen, Inc., priority 2007, dated 2011)
